Source: ChEMBL document CHEMBL4680185, “Discovery of novel cyclin-dependent kinase (CDK) and histone deacetylase (HDAC) dual inhibitors with potent in vitro and in vivo anticancer activity” (Eur J Med Chem, 2020)
Calls of active or inactive are those of the source. The rule behind the calls is not given here.

How the values were obtained:
A-375 [1] = assay: Cell cycle arrest in human A375 cells assessed as increase in number of cells at G2/M phase at 2 uM incubated for 24 hrs by propidium iodide staining based flow cytometry (reference value: 1.13%); format: functional
[2] = target: T1, Protein deacetylase HDAC6 (Homo sapiens, UniProt Q9UBN7); assay: Inhibition of human recombinant HDAC6 preincubated for 10 mins followed by addition of substrate fluor De Lys SIRT1 deacetylase measured after 30 mins by fluorescent plate reader analysis
T1 sequence (Q9UBN7 whole entry): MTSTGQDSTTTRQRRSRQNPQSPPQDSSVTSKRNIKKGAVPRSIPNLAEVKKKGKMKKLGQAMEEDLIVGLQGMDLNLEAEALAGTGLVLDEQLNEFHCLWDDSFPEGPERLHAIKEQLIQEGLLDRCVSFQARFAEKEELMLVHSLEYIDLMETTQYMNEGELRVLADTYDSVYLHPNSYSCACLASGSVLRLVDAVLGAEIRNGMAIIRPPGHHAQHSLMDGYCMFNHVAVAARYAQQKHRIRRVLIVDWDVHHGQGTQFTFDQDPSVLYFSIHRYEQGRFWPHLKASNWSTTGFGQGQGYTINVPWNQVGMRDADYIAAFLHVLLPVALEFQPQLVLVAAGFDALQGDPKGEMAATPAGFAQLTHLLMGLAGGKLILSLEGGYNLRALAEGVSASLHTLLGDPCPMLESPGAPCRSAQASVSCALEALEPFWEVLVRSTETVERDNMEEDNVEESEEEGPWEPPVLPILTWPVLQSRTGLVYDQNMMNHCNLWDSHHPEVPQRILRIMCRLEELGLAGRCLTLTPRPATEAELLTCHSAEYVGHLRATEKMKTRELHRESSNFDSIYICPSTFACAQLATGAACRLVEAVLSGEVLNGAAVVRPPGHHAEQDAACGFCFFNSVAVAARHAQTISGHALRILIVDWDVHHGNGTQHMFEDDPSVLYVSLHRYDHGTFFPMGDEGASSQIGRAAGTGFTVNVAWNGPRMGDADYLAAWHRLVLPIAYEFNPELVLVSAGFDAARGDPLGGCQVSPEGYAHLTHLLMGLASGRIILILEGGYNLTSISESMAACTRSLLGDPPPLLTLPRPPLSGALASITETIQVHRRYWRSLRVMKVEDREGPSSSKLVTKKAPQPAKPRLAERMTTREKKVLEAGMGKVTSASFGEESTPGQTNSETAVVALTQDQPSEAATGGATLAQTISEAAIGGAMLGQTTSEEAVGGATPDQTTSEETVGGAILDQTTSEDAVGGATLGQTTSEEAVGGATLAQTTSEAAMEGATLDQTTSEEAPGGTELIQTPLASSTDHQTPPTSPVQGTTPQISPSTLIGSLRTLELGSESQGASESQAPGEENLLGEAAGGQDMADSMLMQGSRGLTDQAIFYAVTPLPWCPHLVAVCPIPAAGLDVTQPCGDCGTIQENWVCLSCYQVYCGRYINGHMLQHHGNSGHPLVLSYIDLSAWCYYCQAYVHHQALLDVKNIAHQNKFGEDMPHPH

NCI-H460 = assay: cells; format: functional, cell-based; settings: Homo sapiens, NCI-H460, 72 h
Description: Antiproliferative activity against human H460 cells assessed as inhibition of cell growth incubated for 72 hrs by CCK-8 assay

A-375 [3] = assay: Antimigratory activity against human A375 cells assessed as inhibition of cell migration at 0.25 uM measured after 48 hrs by cell scratch assay; format: functional, cell-based
[4] = AUC (0 to infinity) in ICR mouse at 20 mg/kg, ip by LC-MS/MS analysis; format: ADME, organism-based; set-up: time infinity, route intraperitoneal, dose 20 mg/kg; settings: in vivo
CDK2/Cyclin A2 = CDK2/Cyclin A2 (Homo sapiens, UniProt P24941); assay: Inhibition of recombinant human full length CDK2/cyclin A2 incubated for 10 mins by ADP-Glo reagent assay; format: protein-complex assay
HCT-116 [5] = assay: Antitumor activity against human HCT116 cells xenografted in BALB/C nude mouse assessed reduction in tumor growth at 12.5 mg/kg, ip once daily for 21 days relative to control; format: functional; settings: HCT-116, ip, 504 h, time 21 day, read-out: TGI
HCT-116 [6] = assay: Antitumor activity against human HCT116 cells xenografted in BALB/C nude mouse assessed reduction in tumor growth at 25 mg/kg, ip once daily for 21 days relative to control; format: functional; settings: HCT-116, ip, 504 h, time 21 day, read-out: TGI
[7] = Toxicity in BALB/C nude mouse xenografted with HCT116 cells assessed as effect on body weight at 12.5 to 25 mg/kg, ip once daily for 21 days; format: organism-based; settings: in vivo, 504 h, dose 12.5-25 mg/kg, time 21 day

| IC50 [2] [nM] | IC50 (NCI-H460) [nM] | AUC [4] [ng·h/mL] | IC50 (CDK2/Cyclin A2) [nM] | SMILES | Activity (A-375 [1]) [%] | inhibition (A-375 [3]) | inhibition in vivo at 12.5 mg/kg (HCT-116 [5]) [%] | inhibition in vivo at 25 mg/kg (HCT-116 [6]) [%] | Activity [7] |
| --- | --- | --- | --- | --- | --- | --- | --- | --- | --- |
| > 1000 | 2630 | 7200 | 0.56 | Nc1ccccc1NC(=O)Cc1ccc(NC(=O)c2n[nH]cc2NC(=O)c2c(Cl)cccc2Cl)cc1 | 66.48 | Active |  |  |  |
| > 1000 | 4190 | 30700 | 0.3 | Nc1ccccc1NC(=O)c1ccc(CNC(=O)c2n[nH]cc2NC(=O)c2c(Cl)cccc2Cl)cc1 | 57.74 | Active | 37 | 51 | Non-Toxic |
